Data reported in ChEMBL document CHEMBL1201862, “PubChem BioAssay data set” (2004).
The source made the active and inactive calls. No stated cut-off is given here; in the data, actives have a measured IC50 and inactives only a lower limit.

Target: Envelope glycoprotein gp160 (Human immunodeficiency virus 1, UniProt Q6QLK5)
Assay: inhibitors of HIV fusion peptide binding, primary screen, biochemical, uHTS, fluorescence dequenching (AID 1986)

Sequence of Envelope glycoprotein gp160 (Q6QLK5 whole entry, the tested form may be a part): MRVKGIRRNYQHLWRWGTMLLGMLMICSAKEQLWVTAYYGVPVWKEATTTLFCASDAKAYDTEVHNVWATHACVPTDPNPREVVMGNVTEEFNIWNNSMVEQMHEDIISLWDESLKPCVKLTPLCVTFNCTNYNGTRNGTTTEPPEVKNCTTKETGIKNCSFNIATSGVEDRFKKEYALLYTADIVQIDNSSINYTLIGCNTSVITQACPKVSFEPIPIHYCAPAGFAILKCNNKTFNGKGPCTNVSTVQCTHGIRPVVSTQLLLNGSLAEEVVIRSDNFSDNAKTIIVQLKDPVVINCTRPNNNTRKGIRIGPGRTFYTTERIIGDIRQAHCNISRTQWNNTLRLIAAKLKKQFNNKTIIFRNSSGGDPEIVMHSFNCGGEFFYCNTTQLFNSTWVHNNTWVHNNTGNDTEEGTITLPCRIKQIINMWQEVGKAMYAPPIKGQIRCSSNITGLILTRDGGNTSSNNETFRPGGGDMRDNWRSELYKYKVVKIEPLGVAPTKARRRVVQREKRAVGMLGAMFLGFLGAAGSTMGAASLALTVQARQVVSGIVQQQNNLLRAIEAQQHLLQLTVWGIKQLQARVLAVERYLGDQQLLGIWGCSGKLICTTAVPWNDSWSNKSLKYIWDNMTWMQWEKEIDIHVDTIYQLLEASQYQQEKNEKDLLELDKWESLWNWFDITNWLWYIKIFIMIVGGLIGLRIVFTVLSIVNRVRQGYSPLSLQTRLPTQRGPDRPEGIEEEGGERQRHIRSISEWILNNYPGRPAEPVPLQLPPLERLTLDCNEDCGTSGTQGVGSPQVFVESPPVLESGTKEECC

**Q.** COc1ccc(OC)c(N2C(=O)/C(=C/c3ccco3)C(=O)NC2=S)c1 was tested. Which IC50 did it give?
**A.** 12.6 µM (active)

**Q.** For N#Cc1c(O)nc(SCC(=O)N2c3ccccc3Sc3ccccc32)nc1-c1ccccc1, which IC50 is on record?
**A.** 13.1 µM (active)

**Q.** For O=C1NN(c2ccc(Cl)cc2)C(=O)/C1=C\c1ccc(-c2cccc(C(=O)O)c2)o1, which IC50 is on record?
**A.** 11.9 µM (active)
